# From patent US12473262B2, “Aryl hydrocarbon receptor activators” (Oregon State University, priority 2019, dated 2025)
# What was measured:
# GVHD = conditions: murine model; cited from earlier work
# T1D = conditions: murine model; cited from earlier work
# [1] = acute or chronic treatment of mice, therapeutic dose; cited from earlier work
# in vitro [2] = conditions: human, microsomes, pH 7.4
# Protocol: (§1) The assessment of metabolic stability of testing compounds was performed using human, mouse, rat, dog and monkey liver microsomes (20 mg protein/ml). Each reaction mixture contained 42.5 μL of 0.1 M potassium phosphate buffer pH 7.4, containing respective LM protein (final concentration 0.5 mg/ml). 2.5 μL of the compound stock solution was added in it (1 μM final concentration). The reaction was initiated by the addition of 5 μL NADPH solution (final Concentration 1 mM). At different time points (0, 5, 15, and 30 minutes), samples were quenched with 200 μL of cold acetonitrile containing ISTD Propranolol. Samples were centrifuged at 3500 rpm for 20 mM at 4° C. Supernatant was subjected to LC-MS/MS analysis for quantification. Verapamil was used as a positive control.
# [3] = human, microsomes, 0.5 h, 1 μM, pH 7.4
# Protocol: as §1
# [4] = rat, microsomes, 0.5 h, 1 μM, pH 7.4
# in vitro [5] = conditions: rat, microsomes, pH 7.4
# in vitro [6] = conditions: mouse, microsomes, pH 7.4
# Protocol: as §1
# [7] = mouse, microsomes, 0.5 h, 1 μM, pH 7.4
# Protocol: as §1
# [8] = target: aryl hydrocarbon receptor (AhR) (Mus musculus (Mouse), UniProt P30561); experiment: AhR ligand screening: AhRE-luciferase reporter in transfected Hepa1 cells; assay type: cell-based
# aryl hydrocarbon receptor (AhR), sequence (P30561 10-805): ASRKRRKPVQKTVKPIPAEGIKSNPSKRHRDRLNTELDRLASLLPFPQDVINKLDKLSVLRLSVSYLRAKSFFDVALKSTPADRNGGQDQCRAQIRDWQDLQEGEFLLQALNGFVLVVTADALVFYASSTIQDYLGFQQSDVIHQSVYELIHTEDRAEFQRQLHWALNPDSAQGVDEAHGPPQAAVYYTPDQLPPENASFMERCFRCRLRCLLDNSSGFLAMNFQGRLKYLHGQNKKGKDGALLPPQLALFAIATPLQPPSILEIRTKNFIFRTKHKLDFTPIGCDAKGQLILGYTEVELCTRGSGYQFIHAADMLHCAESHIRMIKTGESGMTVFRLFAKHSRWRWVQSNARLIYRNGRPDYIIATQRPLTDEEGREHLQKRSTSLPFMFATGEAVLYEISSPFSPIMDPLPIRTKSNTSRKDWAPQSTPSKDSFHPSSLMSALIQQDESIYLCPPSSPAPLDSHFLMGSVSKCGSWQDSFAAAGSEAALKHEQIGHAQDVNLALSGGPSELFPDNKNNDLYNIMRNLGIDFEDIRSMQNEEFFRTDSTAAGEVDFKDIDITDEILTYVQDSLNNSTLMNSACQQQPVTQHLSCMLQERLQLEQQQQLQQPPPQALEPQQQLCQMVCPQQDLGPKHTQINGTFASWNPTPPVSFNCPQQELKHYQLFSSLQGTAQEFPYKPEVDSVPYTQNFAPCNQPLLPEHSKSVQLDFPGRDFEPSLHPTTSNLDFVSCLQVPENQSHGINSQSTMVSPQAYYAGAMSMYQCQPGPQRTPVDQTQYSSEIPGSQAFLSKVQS
# aryl hydrocarbon receptor (AhR), sequence (P53762 whole entry partner): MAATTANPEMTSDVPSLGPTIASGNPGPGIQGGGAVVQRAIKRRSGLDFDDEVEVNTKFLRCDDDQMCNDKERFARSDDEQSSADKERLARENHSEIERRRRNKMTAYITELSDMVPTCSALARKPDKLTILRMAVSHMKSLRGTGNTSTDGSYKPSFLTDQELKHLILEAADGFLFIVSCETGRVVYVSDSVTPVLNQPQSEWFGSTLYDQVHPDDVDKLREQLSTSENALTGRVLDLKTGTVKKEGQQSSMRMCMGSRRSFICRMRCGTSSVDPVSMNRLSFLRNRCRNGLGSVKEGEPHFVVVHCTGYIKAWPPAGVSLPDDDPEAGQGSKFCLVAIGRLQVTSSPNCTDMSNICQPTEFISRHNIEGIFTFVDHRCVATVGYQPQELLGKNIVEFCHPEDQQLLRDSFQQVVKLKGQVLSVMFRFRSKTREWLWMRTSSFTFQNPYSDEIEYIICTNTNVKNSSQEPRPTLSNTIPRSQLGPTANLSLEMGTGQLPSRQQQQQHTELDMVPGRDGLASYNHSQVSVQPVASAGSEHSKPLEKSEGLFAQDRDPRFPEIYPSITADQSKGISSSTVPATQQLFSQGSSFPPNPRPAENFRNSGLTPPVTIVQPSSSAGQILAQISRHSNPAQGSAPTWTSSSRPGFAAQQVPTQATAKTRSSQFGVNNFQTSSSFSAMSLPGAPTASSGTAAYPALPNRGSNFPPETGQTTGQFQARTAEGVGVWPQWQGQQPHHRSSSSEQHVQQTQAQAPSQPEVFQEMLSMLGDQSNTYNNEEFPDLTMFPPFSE
# Summary of the method: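 Values are fold luciferase induction relative to vehicle (0.1% DMSO), read by luminometry of lysates from Hepa1 cells carrying an AhRE-driven luciferase reporter. Cells were seeded at 1×10^4 per well, grown overnight and treated with compound before lysis.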
SMILES,development of GVHD (GVHD),development of T1D (T1D),overt toxicity [1],half-life at 1 μM (in vitro [2]),microsomal CLint at 1 μM (in vitro [2]),Rem @ HLM × 30 min [3],Rem @ RLM × 30 min [4],half-life at 1 μM (in vitro [5]),microsomal CLint at 1 μM (in vitro [5]),half-life at 1 μM (in vitro [6]),microsomal CLint at 1 μM (in vitro [6]),Rem @ MLM × 30 min [7],Fold @ 1 nM ([8]; fold change of luciferase expression at 1 nM test compound relative to vehicle (0.1% DMSO)),Fold @ 100 nM ([8]; fold change of luciferase expression at 100 nM test compound relative to vehicle (0.1% DMSO)),Fold @ 10 uM ([8]; fold change of luciferase expression at 10 uM test compound relative to vehicle (0.1% DMSO)),Fold relative to benchmark @ 100 nM ([8]; luciferase expression at 100 nM test compound relative to 100 nM benchmark compound 11-cl-BBQ)
"O=c1c2cccc3cccc(c32)c2nc3cc(Cl)ccc3n12 [Compound 11-Cl-BBQ, 11-chloro-7H-benzimidazo[2,1-a]benzo[de]-Iso-quinolin-7-one]",suppress the development of T1D and GVHD,suppress the development of T1D,no overt toxicity,,,,,,,,,,,,,
O=C(c1ccc2ccccc2c1)c1c[nH]c2ccc(Cl)cc12 [Compound 885],,,,36.8 min,37.7 µL/min/mg,58.1%,50.2%,30.7 min,45.1 µL/min/mg,27.5 min,50.4 µL/min/mg,45.1%,1 fold,1 fold,1 fold,0.02 fold
